Test [1] addresses T1, EGFR L858R-T790M-C797S (Homo sapiens, UniProt P00533, C797S/L858R/T790M).
T1 construct: generated using CRISPR technology to introduce the additional C797S mutation by Horizon Discovery; host or cells: NCI-H1975+CS (CRISPR knock-in of C797S)
Description: EGFR degradation, Total EGFR (L858R-specific) HTRF, NCI-H1975+CS. The conditions noted are these: Table 9B; NCI-H1975 C797S clone, 6 hours, Total EGFR HTRF; read-out: H1975 C797S clone EGFR DC50. The test is classed as cell-based. From the text:
NCI-H1975 (harboring EGFR heterozygous L858R-T790M mutations) and NCI-H3255 (harboring EGFR heterozygous L858R mutation) were purchased from ATCC and NCI, respectively. NCI-H1975+CS (harboring EGFR heterozygous L858R-T790M-C797S mutations) was generated using CRISPR technology to introduce the additional C797S mutation by Horizon Discovery. A431 (harboring EGFR wildtype) was purchased from ATCC. RPMI 1640 no-phenol red medium and fetal bovine serum (FBS) were purchased from Gibco (Grand Island, NY, USA). Cell culture flasks and 384-well microplates were acquired from VWR (Radnor, PA, USA). Phosphorylated (pY1068) EGFR and Total EGFR (using L858R-specific detection antibody and pan-EGFR antibody for EGFR mutant cell lines and EGFR wild-type cell lines, respectively) HTRF assay kits were purchased from Cisbio (Bedford, MA, USA).
Degradation of EGFR protein containing L858R mutation or wild-type was determined based on quantification of FRET signal using a Total EGFR (L858R-specific or pan-EGFR detecting) HTRF assay kit. Phospho-EGFR (pEGFR) inhibition was determined based on quantification of FRET signal using a pY1068 EGFR HTRF assay kit. In separate assay plates, test compounds were added to the 384-well plate from a top concentration of 10 μM with 11 points, half log titration in duplicates. For each assay, 12.5 uL of cells suspended in assay media (RPMI 1640 no-phenol red medium+10% FBS) at cell densities indicated for each cell line in Table 8 below were dispensed using a multi-channel pipette to 384-well low volume white HTRF microplates containing a duplicate concentration range of test compounds and DMSO controls. The plates were kept at 37° C. with 5% CO2 for 6 hours and then incubated with either phospho EGFR or Total EGFR HTRF detection antibodies according to the cell line and EGFR mutant being assayed. Cells treated in the absence of the test compound were the negative control. Positive control was set by wells containing all reagents but no cells. FRET signal was acquired on EnVision™ Multilabel Reader (PerkinElmer, Santa Clara, CA, USA). Compound concentration that achieves 50% degradation and inhibition was reported as DC50 and IC50, respectively.
Background: Time-resolved FRET reads energy transfer from a long-lived donor to a nearby acceptor.

In test [2] the target is T2, EGFR L858R-T790M (Homo sapiens, UniProt P00533, L858R/T790M).
T2 construct: NCI-H1975 (harboring EGFR heterozygous L858R-T790M mutations); host or cells: NCI-H1975
T2 sequence (P00533 25-1210 T790M/L858R): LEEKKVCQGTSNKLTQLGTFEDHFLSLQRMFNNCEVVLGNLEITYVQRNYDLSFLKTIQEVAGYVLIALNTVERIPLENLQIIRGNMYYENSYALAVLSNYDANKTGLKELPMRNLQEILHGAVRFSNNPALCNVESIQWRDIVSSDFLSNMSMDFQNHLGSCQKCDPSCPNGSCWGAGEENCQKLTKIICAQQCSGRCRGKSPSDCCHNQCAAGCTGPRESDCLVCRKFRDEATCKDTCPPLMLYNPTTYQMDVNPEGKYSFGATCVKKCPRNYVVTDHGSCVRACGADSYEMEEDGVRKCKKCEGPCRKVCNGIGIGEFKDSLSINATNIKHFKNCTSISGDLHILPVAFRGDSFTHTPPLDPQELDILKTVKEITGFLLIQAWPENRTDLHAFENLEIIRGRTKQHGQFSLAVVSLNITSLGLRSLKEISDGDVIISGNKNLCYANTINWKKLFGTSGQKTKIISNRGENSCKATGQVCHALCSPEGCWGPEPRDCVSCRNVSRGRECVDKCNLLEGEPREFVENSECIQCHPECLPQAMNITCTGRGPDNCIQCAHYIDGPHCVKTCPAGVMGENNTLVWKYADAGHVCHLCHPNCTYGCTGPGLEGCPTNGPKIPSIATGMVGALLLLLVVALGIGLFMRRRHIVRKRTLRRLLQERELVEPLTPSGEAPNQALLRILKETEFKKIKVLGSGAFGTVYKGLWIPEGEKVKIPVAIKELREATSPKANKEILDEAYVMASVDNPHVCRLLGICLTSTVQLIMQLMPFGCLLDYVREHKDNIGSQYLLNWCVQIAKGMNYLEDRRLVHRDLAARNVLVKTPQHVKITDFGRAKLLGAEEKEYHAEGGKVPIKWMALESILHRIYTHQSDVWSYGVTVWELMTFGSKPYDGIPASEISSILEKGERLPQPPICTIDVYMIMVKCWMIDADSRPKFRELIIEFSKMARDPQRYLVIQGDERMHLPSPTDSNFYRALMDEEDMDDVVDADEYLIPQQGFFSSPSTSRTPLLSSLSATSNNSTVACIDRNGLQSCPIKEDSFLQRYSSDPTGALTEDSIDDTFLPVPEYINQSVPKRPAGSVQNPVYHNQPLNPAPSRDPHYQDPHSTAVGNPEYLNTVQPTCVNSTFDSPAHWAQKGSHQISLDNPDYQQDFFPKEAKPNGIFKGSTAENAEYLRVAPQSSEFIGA
The test can be described thus: EGFR degradation, Total EGFR (L858R-specific) HTRF, NCI-H1975. The test is classed as cell-based. The conditions noted are these: Table 9B; NCI-H1975 cells, 6 hours, Total EGFR HTRF; read-out: H1975 EGFR DC50. In a few lines:
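FRET signal from HTRF kits measured phospho-EGFR at pY1068 or total EGFR after 6 h treatment at 37 °C. Compounds ran as 11-point half-log dilutions from 10 μM in duplicate, in cells in phenol red-free RPMI with 10% FBS. Concentrations giving 50% inhibition or degradation were reported as IC50 or DC50.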

Bounds are passed on as bounds.

T1 sequence (P00533 25-1210 T790M/C797S/L858R): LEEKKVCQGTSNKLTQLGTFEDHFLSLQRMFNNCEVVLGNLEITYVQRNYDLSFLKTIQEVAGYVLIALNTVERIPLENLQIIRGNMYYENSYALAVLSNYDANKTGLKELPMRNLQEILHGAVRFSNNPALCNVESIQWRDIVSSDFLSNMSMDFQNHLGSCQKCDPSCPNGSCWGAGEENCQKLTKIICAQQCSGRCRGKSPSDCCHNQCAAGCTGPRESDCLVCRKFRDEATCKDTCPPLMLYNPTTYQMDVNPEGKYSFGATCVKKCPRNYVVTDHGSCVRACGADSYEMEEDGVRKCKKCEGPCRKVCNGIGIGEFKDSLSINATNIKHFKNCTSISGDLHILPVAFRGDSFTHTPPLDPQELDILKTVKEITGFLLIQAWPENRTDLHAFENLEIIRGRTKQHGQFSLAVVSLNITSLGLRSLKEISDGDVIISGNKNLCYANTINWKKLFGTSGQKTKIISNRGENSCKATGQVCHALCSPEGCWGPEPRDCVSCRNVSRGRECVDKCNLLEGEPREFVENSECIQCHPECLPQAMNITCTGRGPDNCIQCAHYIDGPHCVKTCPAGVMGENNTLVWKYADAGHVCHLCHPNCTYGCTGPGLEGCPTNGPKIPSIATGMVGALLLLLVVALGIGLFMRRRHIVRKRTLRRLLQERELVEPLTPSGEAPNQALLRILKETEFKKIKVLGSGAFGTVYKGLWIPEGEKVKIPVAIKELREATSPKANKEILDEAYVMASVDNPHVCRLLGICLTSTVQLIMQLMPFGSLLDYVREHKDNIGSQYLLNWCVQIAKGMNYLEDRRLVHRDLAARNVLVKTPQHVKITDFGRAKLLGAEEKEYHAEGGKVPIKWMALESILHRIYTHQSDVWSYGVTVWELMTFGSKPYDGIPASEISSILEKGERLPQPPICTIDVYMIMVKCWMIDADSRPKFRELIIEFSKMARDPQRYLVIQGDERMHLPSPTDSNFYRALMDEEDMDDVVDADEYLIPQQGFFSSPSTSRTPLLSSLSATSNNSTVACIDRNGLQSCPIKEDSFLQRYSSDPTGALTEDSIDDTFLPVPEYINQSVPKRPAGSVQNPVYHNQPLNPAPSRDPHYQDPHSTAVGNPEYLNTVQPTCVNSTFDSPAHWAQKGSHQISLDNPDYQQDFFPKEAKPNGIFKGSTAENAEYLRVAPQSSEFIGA

The DC50 is the midpoint of the concentration-degradation curve. In the case of `Cn1nc(N2CCC(=O)NC2=O)c2ccc(C3CCN(CC(=O)N4CC5(C4)CN(c4ccc(-c6cc(F)c7c(c6)C(=O)N(C(C(=O)Nc6nccs6)c6ncn8c6CCC8)C7)cc4)C5)C4(CC4)C3)cc21` (stereo not drawn) [Compound 154, 2-(6,7-dihydro-5H-pyrrolo[1,2-c]imidazol-1-yl)-2-[6-[4-[2-[2-[7-[3-(2,4-dioxohexahydropyrimidin-1-yl)-1-methyl-indazol-6-yl]-4-azaspiro[2.5]octan-4-yl]acetyl]-2,6-diazaspiro[3.3]heptan-6-yl]phenyl]-4-fluoro-1-oxo-isoindolin-2-yl]-N-thiazol-2-yl-acetamide], the DC50 in test [1] and in test [2] was less than 50 nM throughout.
Take `Cn1nc(N2CCC(=O)NC2=O)c2ccc(C3CCN(CC(=O)N4CC5(C4)CN(c4ccc(-c6ccc7cn(C(C(=O)Nc8nccs8)c8ncn9c8CCC9)nc7c6F)cn4)C5)CC3(F)F)cc21` (stereo not drawn) [Compound 70, 2-(6,7-dihydro-5H-pyrrolo[1,2-c]imidazol-1-yl)-2-[6-[6-[2-[2-[4-[3-(2,4-dioxohexahydropyrimidin-1-yl)-1-methyl-indazol-6-yl]-3,3-difluoro-1-piperidyl]acetyl]-2,6-diazaspiro[3.3]heptan-6-yl]-3-pyridyl]-7-fluoro-indazol-2-yl]-N-thiazol-2-yl-acetamide]: the DC50 in test [1] and in test [2] was less than 50 nM each time.
`O=C1CC[C@H](Nc2ccc(C3CCN(C(=O)CC4(O)CCN(c5ccc(-c6ccc7cn(C(C(=O)Nc8nccs8)c8ncn9c8CCC9)nc7c6F)cn5)CC4)CC3)c(F)c2)C(=O)N1` (stereo partly drawn) [Compound 151, 2-(6,7-dihydro-5H-pyrrolo[1,2-c]imidazol-1-yl)-2-[6-[6-[4-[2-[4-[4-[[(3S)-2,6-dioxo-3-piperidyl]amino]-2-fluoro-phenyl]-1-piperidyl]-2-oxo-ethyl]-4-hydroxy-1-piperidyl]-3-pyridyl]-7-fluoro-indazol-2-yl]-N-thiazol-2-yl-acetamide]: the DC50 in test [1] is less than 50 nM.
On to `O=C1CC[C@H](Nc2ccc(C3CCN(CC(=O)N4CC5(C4)CN(c4ccc(-c6ccc7cn(C(C(=O)Nc8nccs8)c8ncn9c8CCC9)nc7c6F)cn4)C5)CC3)c(F)c2)C(=O)N1` (stereo partly drawn) [Compound 69, 2-(6,7-dihydro-5H-pyrrolo[1,2-c]imidazol-1-yl)-2-[6-[6-[2-[2-[4-[4-[[(3S)-2,6-dioxo-3-piperidyl]amino]-2-fluoro-phenyl]-1-piperidyl]acetyl]-2,6-diazaspiro[3.3]heptan-6-yl]-3-pyridyl]-7-fluoro-indazol-2-yl]-N-thiazol-2-yl-acetamide], for which the DC50 in test [1] and in test [2] was less than 50 nM throughout.
For the molecule `O=C1CC[C@H](Nc2ccc(C3CCN(C(=O)CC4(O)CCN(c5ccc(-c6cc(F)c7cn(C(C(=O)Nc8nccs8)c8ncn9c8CCC9)nc7c6)cn5)CC4)CC3)c(F)c2)C(=O)N1` (stereo partly drawn) [Compound 150, 2-(6,7-dihydro-5H-pyrrolo[1,2-c]imidazol-1-yl)-2-[6-[6-[4-[2-[4-[4-[[(3S)-2,6-dioxo-3-piperidyl]amino]-2-fluoro-phenyl]-1-piperidyl]-2-oxo-ethyl]-4-hydroxy-1-piperidyl]-3-pyridyl]-4-fluoro-indazol-2-yl]-N-thiazol-2-yl-acetamide], in test [1], the DC50 was less than 50 nM.
Turning to `Cn1nc(N2CCC(=O)NC2=O)c2ccc(C3CCN(CC(=O)N4CC5(C4)CN(c4ccc(-c6cc(F)c7c(c6)C(=O)N(C(C(=O)Nc6nccs6)c6ncn8c6CCC8)C7)cn4)C5)CC3(F)F)cc21` (stereo not drawn) [Compound 87, 2-(6,7-dihydro-5H-pyrrolo[1,2-c]imidazol-1-yl)-2-(6-(6-(6-(2-(4-(3-(2,4-dioxotetrahydropyrimidin-1(2H)-yl)-1-methyl-1H-indazol-6-yl)-3,3-difluoropiperidin-1-yl)acetyl)-2,6-diazaspiro[3.3]heptan-2-yl)pyridin-3-yl)-4-fluoro-1-oxoisoindolin-2-yl)-N-(thiazol-2-yl)acetamide], the DC50 in test [1] and in test [2] was less than 50 nM in each case.
As to `Cn1nc(N2CCC(=O)NC2=O)c2ccc(C3CCN(CC(=O)N4CCCN(c5ccc(-c6cc(F)c7c(c6)C(=O)N(C(C(=O)Nc6nccs6)c6ncn8c6CCC8)C7)cc5)CC4)CC3(F)F)cc21` (stereo not drawn) [Compound 91, 2-(6,7-dihydro-5H-pyrrolo[1,2-c]imidazol-1-yl)-2-(6-(4-(4-(2-(4-(3-(2,4-dioxotetrahydropyrimidin-1(2H)-yl)-1-methyl-1H-indazol-6-yl)-3,3-difluoropiperidin-1-yl)acetyl)-1,4-diazepan-1-yl)phenyl)-4-fluoro-1-oxoisoindolin-2-yl)-N-(thiazol-2-yl)acetamide], the 50% degradation concentration (DC50) was 50 to 150 nM in test [1] and less than 50 nM in test [2].
For `O=C1CCC(Nc2ccc(N3CCC(O)(CC(=O)N4CC5(C4)CN(c4ccc(-c6cc(F)c7c(c6)C(=O)N(C(C(=O)Nc6ccccn6)c6ncn8c6CCC8)C7)cc4)C5)CC3)c(F)c2)C(=O)N1` (stereo not drawn) [Compound 99, 2-(6,7-dihydro-5H-pyrrolo[1,2-c]imidazol-1-yl)-2-[6-[4-[2-[2-[1-[4-[(2,6-dioxo-3-piperidyl)amino]-2-fluoro-phenyl]-4-hydroxy-4-piperidyl]acetyl]-2,6-diazaspiro[3.3]heptan-6-yl]phenyl]-4-fluoro-1-oxo-isoindolin-2-yl]-N-(2-pyridyl)acetamide], the DC50 in test [1] and in test [2] was less than 50 nM each time.
On to `Cn1nc(N2CCC(=O)NC2=O)c2ccc(N3CCN(CC(=O)N4CCN(c5ccc(-c6cc(F)c7c(c6)C(=O)N(C(C(=O)Nc6nccs6)c6ncn8c6CCC8)C7)cc5)CC4)CC3)cc21` (stereo not drawn) [Compound 92, 2-(6,7-dihydro-5H-pyrrolo[1,2-c]imidazol-1-yl)-2-(6-(4-(4-(2-(4-(3-(2,4-dioxotetrahydropyrimidin-1(2H)-yl)-1-methyl-1H-indazol-6-yl)piperazin-1-yl)acetyl)piperazin-1-yl)phenyl)-4-fluoro-1-oxoisoindolin-2-yl)-N-(thiazol-2-yl)acetamide], for which the DC50 in test [1] and in test [2] was less than 50 nM throughout.
As to `O=C1CC[C@H](Nc2ccc(C3CCN(C(=O)CC4(O)CCN(c5ccc(-c6ccc7cn(C(C(=O)Nc8nccs8)c8ncn9c8CCC9)nc7c6F)cc5)CC4)CC3)c(F)c2)C(=O)N1` (stereo partly drawn) [Compound 149, 2-(6,7-dihydro-5H-pyrrolo[1,2-c]imidazol-1-yl)-2-[6-[4-[4-[2-[4-[4-[[(3S)-2,6-dioxo-3-piperidyl]amino]-2-fluoro-phenyl]-1-piperidyl]-2-oxo-ethyl]-4-hydroxy-1-piperidyl]phenyl]-7-fluoro-indazol-2-yl]-N-thiazol-2-yl-acetamide], the DC50 in test [1] is less than 50 nM.
For `C[C@@H]1CC(O)(CC(=O)N2CC3(C2)CN(c2ccc(-c4cc(F)c5cn(C(C(=O)Nc6nccs6)c6ncn7c6CCC7)nc5c4)cc2)C3)C[C@H](C)N1c1ccc(NC2CCC(=O)NC2=O)cc1F` (stereo partly drawn) [Compound 148, 2-(6,7-dihydro-5H-pyrrolo[1,2-c]imidazol-1-yl)-2-[6-[4-[2-[2-[(2s,6r)-1-[4-[(2,6-dioxo-3-piperidyl)amino]-2-fluoro-phenyl]-4-hydroxy-2,6-dimethyl-4-piperidyl]acetyl]-2,6-diazaspiro[3.3]heptan-6-yl]phenyl]-4-fluoro-indazol-2-yl]-N-thiazol-2-yl-acetamide], the DC50 in test [1] is less than 50 nM.
Turning to `Cn1nc(N2CCC(=O)NC2=O)c2ccc(C3CCN(CC(=O)N4CCC(NC(=O)c5ccc(C#Cc6cc(F)c7c(c6)C(=O)N(C(C(=O)Nc6nccs6)c6ncn8c6CCC8)C7)cn5)CC4)CC3(F)F)cc21` (stereo not drawn) [Compound 88, 5-[2-[2-[1-(6,7-dihydro-5H-pyrrolo[1,2-c]imidazol-1-yl)-2-oxo-2-(thiazol-2-ylamino)ethyl]-7-fluoro-3-oxo-isoindolin-5-yl]ethynyl]-N-[1-[2-[4-[3-(2,4-dioxohexahydropyrimidin-1-yl)-1-methyl-indazol-6-yl]-3,3-difluoro-1-piperidyl]acetyl]-4-piperidyl]pyridine-2-carboxamide], the 50% degradation concentration (DC50) in test [1] and in test [2] was less than 50 nM in each case.
On to `O=C1CCN(c2ccc(N3CCC(O)(CC(=O)N4CC5(C4)CN(c4ccc(-c6cc(F)c7cn(C(C(=O)Nc8nccs8)c8ncn9c8CCC9)nc7c6)cc4)C5)CC3)c(F)c2)C(=O)N1` (stereo not drawn) [Compound 147], for which, in test [1], the DC50 is less than 50 nM.

Source of the values: patent US20240158418A1 (C4 Therapeutics, Inc., priority 2021, published 2024).
